The values below come from patent US20200288710A1, “SUBSTITUTED SULPHONAMIDES FOR CONTROLLING ANIMAL PESTS” (BAYER CROPSCIENCE AKTIENGESELLSCHAFT, priority 2016, published 2020).

Structures are written as SMILES. Where two headings read alike, the source gives them in different places.

Data set [1] in a line: log P by HPLC on reversed-phase column (EEC Directive 79/831 Annex V.A8). It counts as physicochemical. As to conditions: reversed-phase HPLC column (C18). The procedure: The log P values were determined according to EEC Directive 79/831 Annex V.A8 by HPLC (highperformance liquid chromatography) on a reversed-phase column (C18). Temperature 43° C. The calibration is effected with unbranched alkan-2-ones (having 3 to 16 carbon atoms), for which the log P values are known. The determination of the M^+ by LC-MS in the acidic range was carried out at pH 2.7 using the mobile phases 0.1% aqueous formic acid and acetonitrile (contains 0.1% formic acid); linear gradient from 10% acetonitrile to 95% acetonitrile, instrument: Agilent 1100 LC system, Agilent MSD system, HTS PAL. The determination of the M^+ by LC-MS in the neutral range was carried out at pH 7.8 using the mobile phases 0.001 molar aqueous ammonium bicarbonate solution and acetonitrile; linear gradient from 10% acetonitrile to 95% acetonitrile. The log P values for the acidic range (as log P [a]) and/or for the neutral range (as log P [n]) were stated in the tables and preparation examples.

Data set [2] has as its system Myzus persicae. Put plainly: Myzus persicae spray test (Chinese cabbage leaf discs). It counts as in vivo. As to conditions: foliar, 120 h, 500 g/ha, after 5-6 days, read-out: efficacy. The method in brief:
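Formulated compound in acetone/dimethylformamide, diluted in water with 1000 ppm emulsifier, was sprayed onto Brassica pekinensis leaf discs carrying mixed-stage Myzus persicae. Percent mortality was read 5-6 days later (0% = no aphids killed, 100% = all killed).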

The subject of data set [3] is Myzus persicae. The experiment in a line: Myzus persicae oral test. It counts as in vivo. To be noted: 120 h, 20 ppm, oral uptake, after 5 days, read-out: efficacy. The method in brief: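 Aphids of mixed ages imbibe, through parafilm, compound solution (acetone stock, water-diluted) combined with sugar-supplemented IPL41 medium to 200 μl. Efficacy read at day 5 as percent killed, 0% meaning no deaths.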

A further data set relates to Musca domestica. The experiment in a line: Musca domestica test. It counts as in vivo. As to conditions: 48 h, adult houseflies, after 2 days, read-out: efficacy (kill in %). The procedure:
Musca domestica Test Solvent: dimethyl sulphoxide To produce a suitable preparation of active compound, 10 mg of active compound are mixed with 0.5 ml of dimethyl sulphoxide, and the concentrate is diluted with water to the desired concentration. Vessels containing a sponge treated with sugar solution and the active compound preparation of the desired concentration are populated with 10 adult houseflies (Musca domestica). After 2 days, the kill in % is determined. 100% means that all of the flies have been killed; 0% means that none of the flies have been killed.

The subject of a further data set is Phaedon cochleariae. The experiment in a line: Phaedon cochleariae spray test. It counts as in vivo. To be noted: foliar, 168 h, Chinese cabbage leaf discs, larvae, after 7 days, read-out: efficacy. The method in brief:
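Mortality of beetle larvae scored at day 7, expressed as % (0% none killed, 100% all). Formulation: compound in solvent, made up and further diluted with emulsifier-containing water (1000 ppm emulsifier).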

Another data set concerns Meloidogyne incognita. The experiment in a line: Meloidogyne incognita test. It counts as in vivo. As to conditions: 336 h, lettuce, after 14 days, read-out: nematicidal efficacy (formation of galls). In outline: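 Gall formation on lettuce roots scored after 14 days: 0% means gall count equals untreated control, 100% means none. Sand vessels held the compound (acetone concentrate diluted in water), southern root-knot nematode egg/larvae suspension and lettuce seeds.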

The subject of the next data set is Lucilia cuprina. Put plainly: Lucilia cuprina test. It counts as in vivo. As to conditions: 48 h, L1 larvae, after 2 days, read-out: efficacy (kill in %). The procedure:
Lucilia cuprina Test Solvent: dimethyl sulphoxide To produce a suitable preparation of active compound, 10 mg of active compound are mixed with 0.5 ml of dimethyl sulphoxide, and the concentrate is diluted with water to the desired concentration. About 20 L1 larvae of the Australian sheep blowfly (Lucilia cuprina) are transferred into a test vessel containing minced horsemeat and the active compound preparation of the desired concentration. After 2 days, the kill in % is determined. 100% means that all the larvae have been killed; 0% means that no larvae have been killed.

[4] abbreviates: acidic range, pH 2.7, HPLC C18, 43° C., read-out: log P (acidic).
The mark [5] stands for this setting: neutral range, pH 7.8, HPLC C18, 43° C., read-out: log P (neutral).

`CCOC(=O)c1nc(-c2c(F)cccc2F)[nH]c1CC` [ethyl 2-(2,6-difluorophenyl)-5-ethyl-1H-imidazole-4-carboxylate]: the chromatographic logP in data set [1] (setting [4]) turned out to be 1.73.

Take `COc1ccc(F)cc1S(=O)(=O)NC(=O)c1cn(C)c(-c2c(F)cccc2Cl)n1` [Example 155]: in the data set on Myzus persicae [2], the pest or weed control at 500 g/ha turned out to be 90%. Besides, in the data set on Myzus persicae [3], the pest or weed control at 20 ppm stood at 100%. For the same molecule, the pest or weed control at 100 ppm in the data set on Musca domestica came out at 80%.

Consider `Cn1cc(C(=O)NS(=O)(=O)c2ccc(Cl)cc2Cl)nc1-c1c(F)cccc1F` [Example 174], for which the pest or weed control at 500 g/ha came out at 100% in the data set with Myzus persicae [2] and 83% in the data set on Phaedon cochleariae. The pest or weed control at 20 ppm in the data set with Meloidogyne incognita and in the data set with Myzus persicae [3] was 100% in each case. Moreover, the pest or weed control at 100 ppm in the data set with Musca domestica was determined as 90%.

On to `COc1ccc(Cl)c(S(=O)(=O)NC(=O)c2cn(C)c(-c3c(F)cccc3Cl)n2)c1` [Example 107], for which the pest or weed control at 500 g/ha in the data set on Myzus persicae [2] and in the data set with Phaedon cochleariae was 100% throughout. The pest or weed control at 100 ppm with Lucilia cuprina and with Musca domestica was 100% each time. The pest or weed control at 20 ppm in the data set with Myzus persicae [3] turned out to be 100%.

As for `Cn1cnc(C(=O)OC(C)(C)C)c1` [tert-butyl 1-methyl-1H-imidazole-4-carboxylate], in data set [1] (setting [4]), the chromatographic logP is 0.63.

As to `CCc1ccccc1S(=O)(=O)NC(=O)c1cn(C)c(-c2c(F)cccc2F)n1` [Example 185], the pest or weed control at 500 g/ha with Myzus persicae [2] stood at 100%. The pest or weed control at 20 ppm in the data set with Meloidogyne incognita stood at 90%; in the data set with Myzus persicae [3] it was 100%. Further, the pest or weed control at 100 ppm with Musca domestica turned out to be 80%.

As to `CCOC(=O)c1cc(O)n(-c2ccccc2Cl)n1` [ethyl 1-(2-chlorophenyl)-5-hydroxy-1H-pyrazole-3-carboxylate], the chromatographic logP in data set [1] (setting [4]) stood at 1.75.

Turning to `Cn1cc(C(=O)NS(=O)(=O)c2ccc(Cl)cc2Cl)nc1-c1ccccc1Cl` [Example 231], the pest or weed control at 500 g/ha in the data set on Myzus persicae [2] amounted to 90%; with Phaedon cochleariae it was 100%. The pest or weed control at 100 ppm in the data set on Lucilia cuprina and in the data set with Musca domestica was 100% throughout. Also, in the data set with Meloidogyne incognita, the pest or weed control at 20 ppm turned out to be 100%.

On to `Cn1cncc1C(=O)OC(C)(C)C` [tert-butyl 1-methyl-1H-imidazole-5-carboxylate], for which the chromatographic logP in data set [1] (setting [5]) came out at 1.71.

For the molecule `Cn1cc(C(=O)OC(C)(C)C)nc1Br` [tert-butyl 2-bromo-1-methyl-1H-imidazole-4-carboxylate], the chromatographic logP in data set [1] (setting [4]) stood at 2.41.

Regarding `CCOC(=O)c1ncn(C)c1C` [ethyl 1,5-dimethyl-1H-imidazole-4-carboxylate], in data set [1] (setting [5]), the chromatographic logP came to 0.85.

As for `Cc1cccc(Cl)c1S(=O)(=O)NC(=O)c1cn(C)c(-c2ncccc2Cl)n1` [Example 576], the pest or weed control at 500 g/ha in the data set on Myzus persicae [2] and in the data set on Phaedon cochleariae was 100% each time. Moreover, the pest or weed control at 100 ppm with Lucilia cuprina and in the data set on Musca domestica was 100% in each case. Besides, in the data set with Myzus persicae [3], the pest or weed control at 20 ppm was found to be 100%.

As for `Cn1cc(C(=O)NS(=O)(=O)c2cc(C(F)(F)F)ccc2Cl)nc1-c1ccccc1Cl` [Example 52], the pest or weed control at 500 g/ha with Myzus persicae [2] was found to be 90%. Also, the pest or weed control at 20 ppm with Meloidogyne incognita amounted to 90%; in the data set on Myzus persicae [3], 100%. The pest or weed control at 100 ppm with Musca domestica was determined as 80%.

Regarding `Cn1c(C(=O)OC(C)(C)C)cnc1-c1c(F)cccc1F` [tert-butyl 2-(2,6-difluorophenyl)-1-methyl-1H-imidazole-5-carboxylate], the chromatographic logP in data set [1] (setting [5]) worked out at 3.

On to `Cn1c(C(=O)O)cnc1-c1c(F)cccc1F` [2-(2,6-difluorophenyl)-1-methyl-1H-imidazole-5-carboxylic acid], for which, in data set [1] (setting [4]), the chromatographic logP turned out to be 0.46.

`Cn1c(C(=O)OC(C)(C)C)cnc1Br` [tert-butyl 2-bromo-1-methyl-1H-imidazole-5-carboxylate]: the chromatographic logP in data set [1] (setting [5]) was 2.54.

Regarding `Cn1cc(C(=O)OC(C)(C)C)nc1-c1c(F)cccc1F` [tert-butyl 2-(2,6-difluorophenyl)-1-methyl-1H-imidazole-4-carboxylate], the chromatographic logP in data set [1] (setting [5]) stood at 2.3.

Regarding `CCc1cccc(C(F)(F)F)c1S(=O)(=O)NC(=O)c1cn(C)c(-c2c(F)cccc2F)n1` [Example 337], the pest or weed control at 500 g/ha in the data set with Myzus persicae [2] is 90%; in the data set on Phaedon cochleariae, 100%. Further, the pest or weed control at 20 ppm in the data set on Meloidogyne incognita was determined as 90%; in the data set with Myzus persicae [3], 100%. Besides, the pest or weed control at 100 ppm in the data set with Musca domestica was 80%.

`CCOC(=O)c1cc(OC)n(-c2ccccc2Cl)n1` [ethyl 1-(2-chlorophenyl)-5-methoxy-1H-pyrazole-3-carboxylate]: the chromatographic logP in data set [1] (setting [4]) was found to be 2.61.

For `COc1cc(C(=O)O)nn1-c1ccccc1Cl` [1-(2-chlorophenyl)-5-methoxy-1H-pyrazole-3-carboxylic acid], the chromatographic logP in data set [1] (setting [4]) came to 1.63.

Take `Cc1ccccc1S(=O)(=O)NC(=O)c1nc(-c2ccccc2Cl)n(C)c1Cl` [5-chloro-2-(2-chlorophenyl)-1-methyl-N-[(2-methylphenyl)sulphonyl]-1 Himidazole-4-carboxamide]: the chromatographic logP in data set [1] (setting [4]) was found to be 3.17.

For the molecule `Cc1ccccc1S(=O)(=O)NC(=O)c1cn(C)c(-c2ccccc2F)n1` [Example 32], in the data set with Myzus persicae [2], the pest or weed control at 500 g/ha came to 90%. Moreover, the results for the pest or weed control at 20 ppm with Meloidogyne incognita and with Myzus persicae [3] were 90% and 100%, respectively. Besides, in the data set on Musca domestica, the pest or weed control at 100 ppm is 80%.

With `COc1ccc(Br)c(S(=O)(=O)NC(=O)c2cn(C)c(-c3c(F)cccc3Cl)n2)c1` [Example 153], the pest or weed control at 500 g/ha in the data set with Myzus persicae [2] and with Phaedon cochleariae was 100% throughout. Moreover, the values for the pest or weed control at 20 ppm in the data set on Meloidogyne incognita and in the data set with Myzus persicae [3] were 90% and 100%, respectively. The pest or weed control at 100 ppm in the data set with Musca domestica was 80%.

For `CCOC(=O)c1nc(-c2c(F)cccc2F)n(C)c1C` [ethyl 2-(2,6-difluorophenyl)-1,5-dimethyl-1H-imidazole-4-carboxylate], the chromatographic logP in data set [1] (setting [5]) came out at 2.

As to `Cc1c(C(=O)O)nc(-c2c(F)cccc2F)n1C` [2-(2,6-difluorophenyl)-1,5-dimethyl-1H-imidazole-4-carboxylic acid], in data set [1] (setting [5]), the chromatographic logP came to 2.

`CCc1[nH]c(-c2c(F)cccc2F)nc1C(=O)O` [2-(2,6-difluorophenyl)-5-ethyl-1H-imidazole-4-carboxylic acid]: the chromatographic logP in data set [1] (setting [5]) worked out at 0.45.

Regarding `CCOC(=O)c1nc(Br)n(C)c1C` [Ethyl 2-Bromo-1,5-Dimethyl-1H-Imidazole-4-Carboxylate], the chromatographic logP in data set [1] (setting [5]) came out at 1.69.

For the molecule `Cn1cc(C(=O)NS(=O)(=O)c2ccccc2Br)nc1-c1c(F)cccc1Cl` [Example 152], the values for the pest or weed control at 500 g/ha in the data set on Myzus persicae [2] and in the data set with Phaedon cochleariae were 90% and 100%, respectively. Further, the pest or weed control at 20 ppm in the data set on Meloidogyne incognita and in the data set with Myzus persicae [3] was 100% throughout. For the same molecule, in the data set on Musca domestica, the pest or weed control at 100 ppm is 80%.

For the molecule `Cn1cc(C(=O)O)nc1-c1c(F)cccc1F` [2-(2,6-difluorophenyl)-1-methyl-1H-imidazole-4-carboxylic acid], the chromatographic logP in data set [1] (setting [5]) was 2.3.

Regarding `Cc1ccc(Cl)cc1S(=O)(=O)NC(=O)c1cn(C)c(-c2c(F)cccc2F)n1` [Example 172], the pest or weed control at 500 g/ha turned out to be 90% in the data set on Myzus persicae [2] and 100% with Phaedon cochleariae. The pest or weed control at 20 ppm in the data set with Meloidogyne incognita and in the data set on Myzus persicae [3] was 100% throughout. Also, in the data set on Musca domestica, the pest or weed control at 100 ppm came out at 90%.

Turning to `COc1ccc(OC)c(S(=O)(=O)NC(=O)c2cn(C)c(-c3c(F)cccc3Cl)n2)c1` [Example 151], the pest or weed control at 500 g/ha in the data set with Myzus persicae [2] came out at 100%. Further, the pest or weed control at 100 ppm with Musca domestica was 100%.
